How the values were obtained:
GI-barrier = assay: FITC-dextran assay (intestinal permeability); assay type: in vivo, mouse; conditions: 21 days following transplant; butyrate-treated vs vehicle allo-BMT recipients
Method: Food and water was withheld from all mice for four hours on day 21 post bone marrow transplant. FITC-dextran (Sigma-Aldrich; St. Louis, Mo.) was administered by 20G-1.5″ flexible intragastric gavage needle (Braintree Scientific; Braintree, Mass.) at a concentration of 50 mg/ml in PBS. BMT recipients received 800 mg/kg (˜16 mg/mouse). Four hours later, serum was collected from peripheral blood, diluted 1:1 with PBS, and analyzed on a plate reader at excitation/emission wavelength of 485 nm/535 nm. Concentrations of FITCdextran experimental samples were determined based on a standard curve.
(§1) Intestinal permeability after allo-BMT was assessed by intragastric administration of FITC-dextran, a non-metabolized carbohydrate (Hanash, A. M. et al. Interleukin-22 protects intestinal stem cells from immune-mediated tissue damage and regulates sensitivity to graft versus host disease. Immunity 37, 339-350 (2012)).

intestinal organoids = assay: Intestinal organoid culture with butyrate; assay type: cell-based, mouse
Method: The potential mechanisms that contribute to butyrate-induced protection from severe GVHD were explored. Because (a) butyrate is decreased in IECs, (b) administration of butyrate mitigated GI GVHD independent of Treg cells, but (c) improved junction integrity, it was explored whether butyrate had direct effects on protecting IECs from allo-T cell mediated damage and conditioning. IECs were treated ex vivo with vehicle or butyrate for 24 hours irradiation (6 Gy) or no-irradition, followed by 24 hours of additional incubation with butyrate was performed. […] The ability of butyrate-treated IECs to withstand damage mediated by alloreactive T cells was determined by isolating and culturing primary IECs with butyrate or vehicle control, overnight. The pre-treated IECs were next co-cultured with primed allogeneic CD8+ T cells, in the absence of butyrate. […] Because butyrate is a primary energy source for IECs 1-13, it was next determined whether butyrate enhances survival and growth of IECs in vitro. To this end, intestinal organoids were cultured in the presence or absence of butyrate. […] Next, the impact of butyrate on IEC junctional function in the organoid cultures was confirmed by determining the mRNA expression of claudins (FIG. 5E).

[1] = system: donor T cells, Treg cells and macrophages in the intestine; assay: Flow cytometry of intestinal cellular contents after allo-BMT; assay type: in vivo, mouse
Source text: To analyze immunophenotype surface markers, lymphocytes contained in the IEC fraction or spleen were harvested, stained using recommended dilutions indicated by manufacturer product sheets and gated on CD4-conjugated PerCP/Cy5.5 (Clone: GK1.5) or CD8-conjugated APC (Clone: 53-6.7) and configurations of the following per mouse in duplicate: CD69-PE (Clone: H1.2F3), CD62L-PE (Clone: MEL-14), CD25-PE (Clone: 3C7), CD44-PerCP/Cy5.5 (Clone: IM7), CD44-APC (Clone: IM7), FoxP3-APC (Clone: FJK-16s). Stained cells were then analyzed with an Accuri C6 Flow Cytometer (BD Biosciences). IECs were stained with CD326-conjugated APC (Clone: G8.8) and DAPI and sorted to >98% purity using a FACSAria III (BD Biosciences) gating on live cells.
The total numbers of CD45.1+ cells recovered from the intestinal lamina propria were not different between vehicle- and butyrate-treated allo-BMT recipients. By contrast, intestinal infiltration of donor CD4+ and CD8+ T cells and activated T cells (CD69+ or CD44hi) was decreased in animals that received local intragastric butyrate administration (FIG. 4a). However, the ratio of donor Treg cells to effector T cells was not different in the intestines of these animals (FIG. 4b). […] However, no difference in the total number of donor macrophages in the intestine of allogenenic recipients that were treated with either vehicle or butyrate was observed (FIG. 4c).

IEC junction = assay: Transmission electron microscopy of intestines, ruthenium red; assay type: in vivo, mouse; conditions: day 7 and day 21; allo-BMT recipients, intragastric butyrate
Source text: Samples were stained as previously described (Soler, A. P. et al. Increased tight junctional permeability is associated with the development of colon cancer. Carcinogenesis 20, 1425-1431 (1999)). Briefly, the intestines from mice that received butyrate or vehicle treatment were harvested 7 days and 21 days following syngeneic and allogeneic BMT and flushed with 0.1 M Sorensen's phosphate buffer (pH 7.4) to remove luminal contents using a 20G needle. The intestines were next gently flushed with 0.1% ruthenium red (RR) containing 2.5% glutaraldehyde fixative in Sorensen's buffer and immediately placed in a dish containing the stain/fixative. Cross sections were immediately sliced (2 mm wide) from the duodenum, jejunum, and illium. The tissue was then rinsed three times with Sorensen's buffer, containing 0.1 percent RR and post-fixed for one hour in one percent osmium tetroxide in the same buffer containing RR. […] Images were recorded digitally using a Hamamatsu ORCA-HR digital camera system operated using AMT software (Advanced Microscopy Techniques Corp., Danvers, Mass.).
as §1

[2] = system: allogeneic (C57BL/6J→BALB/c) BMT recipients; assay: Allo-BMT with Treg-depleted donor T cells (CD4+CD25− or DREG + DT) and butyrate; assay type: in vivo, mouse
Method: To further determine whether the salutary effects of local treatment with butyrate on GI GVHD were dependent on donor Treg cells, a BMT was performed utilizing the same HC mismatched BMT model in which C57BL/6J (H-2b) cells are transferred to Balb/c (H-2d) mice. T cell-depleted (TCD) bone marrow was transplanted and purified CD4+CD25− T cells from donors. Vehicle or butyrate was administered to the recipients daily for 1 week, then every other day thereafter as above. […]. J. Exp. Med. 204, 57-63 (2007); Lahl, K. & Sparwasser, T. In vivo depletion of FoxP3+ Tregs using the DEREG mouse model. […]. The Treg depleted T cells were then used as donor cells in the major MHC mismatch model used above. […] To further examine whether the local administration of butyrate impacted donor T cells directly, the HDAC and HAT enzymatic activity was determined in donor T cells harvested from the recipient animals. Both the HDAC activity or HAT activity in the donor T cells harvested from the recipient spleen were similar between butyrate and vehicle treated allogeneic animals.

[3] = Treg depleted (DREG + DT) donor T cells

CCCC(=O)[O-].[Na+] [butyrate, sodium butyrate]
detectable FITC-dextran in the serum (GI-barrier): significantly less | organoid size (intestinal organoids; culture in the presence of butyrate): significantly increased | mRNA expression of claudins (Cldn1, Cldn5, Cldn6, Cldn10, Cldn11, Cldn13, Cldn14, Cldn17, Cldn18) (intestinal organoids; organoids cultured with butyrate): significantly increased | ratio of donor Treg cells to effector T cells in the intestines ([1]; 21 days after allo-BMT): not different | intestinal infiltration of donor CD4+ and CD8+ T cells and activated T cells (CD69+ or CD44hi) ([1]; 21 days after allo-BMT, intragastric butyrate): decreased | total numbers of CD45.1+ cells recovered from the intestinal lamina propria ([1]; 21 days after allo-BMT, vehicle vs butyrate): not different | total number of donor macrophages in the intestine ([1]; allogeneic recipients, vehicle vs butyrate): no difference | integrity of the IEC junction (TEM) (IEC junction): preserved | GVHD ([2]; TCD bone marrow and purified CD4+CD25− donor T cells): Decreased GVHD | clinical GVHD [2, 3]: Significantly improved clinical GVHD | survival [2, 3]: improved survival | weight loss [2, 3]: less weight loss
